Converted amounts (≈) assume the structure as drawn.
Assays:
A549 [1] = assay: Antiproliferative activity against human A549 cells by SRB assay; format: functional, cell-based
HeLa [2] = assay: Antiproliferative activity against human HeLa cells by SRB assay; format: functional, cell-based
MCF7 [3] = assay: Antiproliferative activity against human MCF7 cells by SRB assay; format: functional, cell-based
MCF7-DOX = assay: Antiproliferative activity against human MCF7/Dox cells by SRB assay; format: functional, cell-based
DU-145 [4] = assay: Antiproliferative activity against human DU145 cells by SRB assay; format: functional, cell-based
SK-OV-3 = assay: Antiproliferative activity against human SKOV3 cells by SRB assay; format: functional, cell-based
HepG2 [5] = assay: Antiproliferative activity against human HepG2 cells by SRB assay; format: functional, cell-based
HT-29 [6] = assay: Antiproliferative activity against human HT-29 cells assessed as reduction in cell viability after 72 hrs by MTT assay; format: functional, cell-based; settings: HT-29, 72 h
MCF7 [7] = assay: Antiproliferative activity against human MCF7 cells assessed as reduction in cell viability after 72 hrs by MTT assay; format: functional, cell-based; settings: MCF7, 72 h
MOLT-4 = assay: Antiproliferative activity against human MOLT4 cells assessed as reduction in cell viability after 72 hrs by MTT assay; format: functional, cell-based; settings: MOLT-4, 72 h
A549 [8] = assay: Antiproliferative activity against human A549 cells assessed as reduction in cell viability after 48 hrs by MTT assay; format: functional, cell-based; settings: A549, 48 h
[9] = Antiproliferative activity against human SMCC7721 cells assessed as reduction in cell viability after 48 hrs by MTT assay; format: functional, cell-based
HL-60 = assay: Antiproliferative activity against human HL60 cells assessed as reduction in cell viability after 48 hrs by MTT assay; format: functional, cell-based; settings: HL-60, 48 h
SW480 = assay: Antiproliferative activity against human SW480 cells assessed as reduction in cell viability after 48 hrs by MTT assay; format: functional, cell-based; settings: SW480, 48 h
HEK293 = assay: Cytotoxicity against HEK293 cells by MTT assay; format: cell-based; settings: Homo sapiens
MDA-MB-231 = assay: Antiproliferative activity against human MDA-MB-231 cells by MTT assay; format: functional, cell-based
HCT-116 [10] = assay: Antiproliferative activity against human HCT116 cells assessed as reduction in cell viability after 48 hrs by MTT assay; format: functional, cell-based; settings: HCT-116, 48 h
HT-29 [11] = assay: Antiproliferative activity against human HT-29 cells assessed as reduction in cell viability after 48 hrs by MTT assay; format: functional, cell-based; settings: HT-29, 48 h
HBL-100 = assay: Antiproliferative activity against human HBL100 cells assessed as reduction in cell viability after 48 hrs by MTT assay; format: functional, cell-based; settings: HBL-100, 48 h
A549 [12] = assay: Antiproliferative activity against human A549 cells assessed as reduction in cell viability after 48 hrs by SRB assay; format: functional, cell-based; settings: A549, 48 h
HCT-116 [13] = assay: Antiproliferative activity against human HCT116 cells assessed as reduction in cell viability after 48 hrs by SRB assay; format: functional, cell-based; settings: HCT-116, 48 h
HT-29 [14] = assay: Antiproliferative activity against human HT-29 cells assessed as reduction in cell viability after 48 hrs by SRB assay; format: functional, cell-based; settings: HT-29, 48 h
MCF7 [15] = assay: Antiproliferative activity against human MCF7 cells assessed as reduction in cell viability after 48 hrs by SRB assay; format: functional, cell-based; settings: MCF7, 48 h
HT-29 [16] = assay: Antiproliferative activity against human HT-29 cells by MTT assay; format: functional, cell-based
MCF-10A = assay: Cytotoxicity against human MCF10A cells by MTT assay; format: cell-based
A549 [17] = assay: cells; format: functional, cell-based; settings: Homo sapiens
Description: Antiproliferative activity against human A549 cells by MTT assay

MV4-11 = assay: Antiproliferative activity against human MV4-11 cells by MTT assay; format: functional, cell-based
DU-145 [18] = assay: Antiproliferative activity against human DU145 cells by MTT assay; format: functional, cell-based
MCF7 [19] = assay: cells; format: functional, cell-based; settings: Homo sapiens
Description: Antiproliferative activity against human MCF7 cells by MTT assay

[20] = Cytotoxicity against dog MDCK1 cells assessed as reduction in cell viability after 72 hrs by MTT assay; format: cell-based; settings: Canis lupus familiaris, MDCK1, 72 h
Caco-2 = assay: Antiproliferative activity against human Caco2 cells assessed as reduction in cell viability after 72 hrs by MTT assay; format: functional, cell-based; settings: Caco-2, 72 h
HeLa [21] = assay: Antiproliferative activity against human HeLa cells assessed as reduction in cell viability after 72 hrs by MTT assay; format: functional, cell-based
K562 = assay: Antiproliferative activity against human K562 cells assessed as reduction in cell viability after 72 hrs by MTT assay; format: functional, cell-based; settings: K562, 72 h
HepG2 [22] = assay: Antiproliferative activity against human HepG2 cells by MTT assay; format: functional, cell-based
KB = assay: Antiproliferative activity against human KB cells by MTT assay; format: functional, cell-based
DU-145 [23] = assay: Antiproliferative activity against human DU145 cells assessed as reduction in cell viability after 48 hrs by MTT assay; format: functional, cell-based; settings: DU-145, 48 h
T47D = assay: Antiproliferative activity against human T47D cells assessed as reduction in cell viability after 72 hrs by MTT assay; format: functional, cell-based
MCF7 [24] = assay: Antiproliferative activity against human MCF7 cells assessed as reduction in cell viability after 48 hrs by MTT assay; format: functional, cell-based; settings: MCF7, 48 h
A549 [25] = assay: Antiproliferative activity against human A549 cells assessed as reduction in cell viability after 72 hrs by MTT assay; format: functional, cell-based; settings: A549, 72 h
HepG2 [26] = assay: Antiproliferative activity against human HepG2 cells assessed as reduction in cell viability after 72 hrs by MTT assay; format: functional, cell-based; settings: HepG2, 72 h
HeLa [27] = assay: Antiproliferative activity against human HeLa cells by MTT assay; format: functional, cell-based

Cc1ccc2c(c1)/C(=N/O)C(=O)N2CCOCCn1cc(COc2ccc3c(C)cc(=O)oc3c2)nn1
IC50 (A549 [1]): 15.5 to 31.5 µM | IC50 (HeLa [2]): 15.5 to 31.5 µM | IC50 (MCF7 [3]): 15.5 to 31.5 µM | IC50 (MCF7-DOX): 15.5 to 31.5 µM | IC50 (DU-145 [4]): 15.5 to 31.5 µM | IC50 (SK-OV-3): 15.5 to 31.5 µM | IC50 (HepG2 [5]): 15.5 to 31.5 µM

CC(C)(C)c1ccc(Cn2cc(CNC3=CC(=O)c4ccccc4C3=O)nn2)cc1
IC50 (HT-29 [6]): 6.8 to 31.7 µM | IC50 (MCF7 [7]): 6.8 to 31.7 µM | IC50 (MOLT-4): 6.8 to 31.7 µM

CCCC(=O)OC[C@H]1O[C@@H](OC(COCc2cn([C@H]3c4cc5c(cc4[C@@H](c4cc(OC)c(O)c(OC)c4)[C@H]4C(=O)OC[C@@H]43)OCO5)nn2)COCc2cn([C@H]3c4cc5c(cc4[C@@H](c4cc(OC)c(O)c(OC)c4)[C@H]4C(=O)OC[C@@H]43)OCO5)nn2)[C@H](OC(=O)CCC)[C@@H](OC(=O)CCC)[C@@H]1OC(=O)CCC (stereo partly drawn)
IC50 (A549 [8]): 0.43 to 30.5 µM | IC50 [9]: 0.43 to 30.5 µM | IC50 (HL-60): 0.43 to 30.5 µM | IC50 (SW480): 0.43 to 30.5 µM

COC(=O)c1ccc(-n2nc(N)c(C(=O)NCCNC(=O)c3nn(-c4ccc(C(=O)OC)cc4)nc3N)n2)cc1
IC50 (HEK293): > 50 µM | IC50 (MDA-MB-231): 12 µM

C[C@@H]1CC[C@@]2(OC1)O[C@H]1C[C@H]3[C@@H]4CC=C5C[C@@H](OCc6cn(-c7ccccc7C#N)nn6)CC[C@]5(C)[C@H]4CC[C@]3(C)[C@H]1[C@@H]2C
IC50 (A549 [8]): 5.16 to 9.44 µM | IC50 (HCT-116 [10]): 5.16 to 9.44 µM | IC50 (HT-29 [11]): 5.16 to 9.44 µM | IC50 (HBL-100): 5.16 to 9.44 µM

O=C(/C=C/c1cn(-c2ccccc2)nc1-c1ccccc1)OCc1cn(-c2ccc([N+](=O)[O-])cc2)nn1
IC50 (A549 [12]): 1.76 to 9.46 µM | IC50 (HCT-116 [13]): 1.76 to 9.46 µM | IC50 (HT-29 [14]): 1.76 to 9.46 µM | IC50 (MCF7 [15]): 1.76 to 9.46 µM

C=CCC1CN2CCC1CC2[C@H](O)c1ccnc2ccc(-c3cn(-c4ccccc4)nn3)cc12 (stereo partly drawn)
IC50 (HT-29 [16]): 0.53 to 14.6 µM | IC50 (MCF-10A): 0.53 to 14.6 µM | IC50 (A549 [17]): 0.53 to 14.6 µM | IC50 (MV4-11): 0.53 to 14.6 µM | IC50 (DU-145 [18]): 0.53 to 14.6 µM | IC50 (MCF7 [19]): 0.53 to 14.6 µM

COc1ccccc1-c1cn(Cc2cc(=O)oc3cc(O)c(O)cc23)nn1
IC50 [20]: 36.7 to 46 µM | IC50 (Caco-2): 9.7 to 81.9 µM | IC50 (HeLa [21]): 9.7 to 81.9 µM | IC50 (K562): 9.7 to 81.9 µM

C[C@@H]1CC[C@@]2(OC1)O[C@H]1C[C@H]3[C@@H]4CC=C5C[C@@H](OCc6cn(-c7ccccc7[N+](=O)[O-])nn6)CC[C@]5(C)[C@H]4CC[C@]3(C)[C@H]1[C@@H]2C
IC50 (A549 [8]): 5.16 to 9.44 µM | IC50 (HCT-116 [10]): 5.16 to 9.44 µM | IC50 (HT-29 [11]): 5.16 to 9.44 µM | IC50 (HBL-100): 5.16 to 9.44 µM

C=CCC1CN2CCC1CC2[C@H](O)c1cc(-c2cn(-c3ccc(O)cc3)nn2)nc2ccc(OC)cc12 (stereo partly drawn)
IC50 (HT-29 [16]): 0.53 to 14.6 µM | IC50 (MCF-10A): 0.53 to 14.6 µM | IC50 (A549 [17]): 0.53 to 14.6 µM | IC50 (MV4-11): 0.53 to 14.6 µM | IC50 (DU-145 [18]): 0.53 to 14.6 µM | IC50 (MCF7 [19]): 0.53 to 14.6 µM

CC[C@@]1(O)C(=O)OCc2c1cc1n(c2=O)Cc2cc3ccccc3nc2-1 [CAMPTOTHECIN]
IC50 (A549 [12]): 0.03 to 0.8 µM | IC50 (HCT-116 [13]): 0.03 to 0.8 µM | IC50 (HT-29 [14]): 0.03 to 0.8 µM | IC50 (MCF7 [15]): 0.03 to 0.8 µM

C[C@@H]1CC[C@@]2(OC1)O[C@H]1C[C@H]3[C@@H]4CC=C5C[C@@H](O)CC[C@]5(C)[C@H]4CC[C@]3(C)[C@H]1[C@@H]2C [DISOGENIN]
IC50 (A549 [8]): 10.8 to 13.3 µM | IC50 (HCT-116 [10]): 10.8 to 13.3 µM | IC50 (HT-29 [11]): 10.8 to 13.3 µM | IC50 (HBL-100): 10.8 to 13.3 µM

COc1cc([C@@H]2c3cc4c(cc3[C@@H](O[C@@H]3O[C@@H]5CO[C@@H](C)O[C@H]5[C@H](O)[C@H]3O)[C@H]3COC(=O)[C@H]23)OCO4)cc(OC)c1O [ETOPOSIDE]
IC50 (A549 [8]): 0.31 to 32.8 µM | IC50 (A549 [1]): 6.94 to 50 µM | IC50 (HepG2 [22]): 11.8 to 15.7 µM | IC50 (HeLa [2]): 6.94 to 50 µM | IC50 (KB): 11.8 to 15.7 µM | IC50 [9]: 0.31 to 32.8 µM | GI50 (MCF7 [7]): 7.5 µg/mL (≈ 12.7 µM) | IC50 (MCF7 [3]): 6.94 to 50 µM | IC50 (DU-145 [23]): 9.8 µM | IC50 (HL-60): 8.12 to 32.8 µM | GI50 (T47D): 7.9 µg/mL (≈ 13.4 µM) | IC50 (MCF7 [24]): 0.31 to 32.8 µM | IC50 (MCF7-DOX): 6.94 to 50 µM | IC50 (DU-145 [4]): 6.94 to 50 µM | IC50 (SW480): 0.31 to 32.8 µM | IC50 (SK-OV-3): 6.94 to 50 µM | IC50 (HepG2 [5]): 6.94 to 50 µM

COc1cc2c(Oc3ccc(NC(=O)C4(C(=O)Nc5ccc(F)cc5)CC4)cc3F)ccnc2cc1OCCCN1CCOCC1 [FORETINIB]
IC50 (MCF7 [7]): 2.4 to 4.7 µM | IC50 (A549 [25]): 2.4 to 4.7 µM | IC50 (HepG2 [26]): 2.4 to 4.7 µM

CC/C(=C(\c1ccccc1)c1ccc(OCCN(C)C)cc1)c1ccccc1 [TAMOXIFEN]
IC50 (HEK293): > 50 µM | IC50 (HeLa [27]): 10.9 to 18.6 µM | IC50 (MDA-MB-231): 11.2 µM | IC50 (A549 [17]): 10.9 to 18.6 µM | IC50 (DU-145 [18]): 10.9 to 18.6 µM | IC50 (MCF7 [19]): 10.9 to 18.6 µM

Reference: ChEMBL document CHEMBL4342418, “1,2,3-Triazole-containing hybrids as potential anticancer agents: Current developments, action mechanisms and structure-activity relationships” (Eur J Med Chem, 2019)
